Test results: patent publication US10028996B2, “Process for the synchronization of ovulation for timed breeding without heat detection” (priority 2003, dated 2018)

Assays:
Assay type in all cases: in vivo, swine
postpartum sows [1] = assay: Litter size after deslorelin treatment in postpartum sows at three farm sites; details: Tables 3 to 5; regardless of estrus detection
Source text: Postpartum sows were randomly distributed into three different groups comprised of Controls, Treatment 1, and Treatment 2, with the exception of Site 3, which was divided into two groups, Control and Treatment 2. Control sows were detected for estrus following weaning, and bred following the normal standard operating procedures for the farms on which they resided. Treatment 1 sows were detected for estrus following weaning, and received a 50 mcg dose of deslorelin in the morning when standing and were bred by AI 4 hours later and again at 24+/−2 hours later. Treatment 2 sows received a 50 mcg dose of deslorelin in SAIB at 96 or 120 hours post-weaning and were bred with a single insemination 28+/−2 hours later with no regard to estrus detection.

[2] = tested on: ovariectomized estrogen primed gilt model; assay: Dose response study of deslorelin in SAIB, LH release determined by RIA; details: single injection of 50 mcg in SAIB
Description: A dose response study was performed using deslorelin in SAIB in an ovariectomized estrogen primed gilt model (Barb, et al. (1999) Proceed. Int'l. Symp. Control. Rel. Bioact. Mater., 26).

mature postpartum sows = assay: Deslorelin injected intravulvar at estrus detection in mature postpartum sows, AI breeding; details: 50 mcg intravulvar at estrus detection
Description: Sows were assigned randomly in blocks of two to either control or to be injected intravulvar with 50 mcg of deslorelin in SAIB at the time of estrus detection for sows first detected in estrus in the a.m. and 12 hours later for those first detected in estrus in the p.m. Treated animals were bred AI upon detected estrus and again 24 hours later if still in estrus. Controls received a saline injection on first detected estrus behavior estrus detection and were bred according to the farm's normal procedures.

postpartum sows [3] = assay: Single timed deslorelin injection 96 hours post-weaning, single timed insemination without estrus detection; details: 50 mcg in SAIB 96 hours post-weaning, no estrus detection
Description: Approximately 170 postpartum sows were randomly divided into two equal groups comprised of controls and treated. Following weaning, the controls were detected for estrus and bred following the normal standard operating procedures for the farms on which they resided. The treated sows received a 50 mcg dose of deslorelin in SAIB at 96 hours post-weaning and were bred with a single insemination 28+/−2 hours later with no regard to estrus detection. The sows were examined for pregnancy by ultrasound at 21 days and slaughtered around 28 days post breeding. The entire reproductive tract was removed and corpora lutea and embryos were counted.

CCNC(=O)[C@@H]1CCCN1C(=O)[C@H](CCCN=C(N)N)NC(=O)[C@H](CC(C)C)NC(=O)[C@@H](Cc1c[nH]c2ccccc12)NC(=O)[C@H](Cc1ccc(O)cc1)NC(=O)[C@H](CO)NC(=O)[C@H](Cc1c[nH]c2ccccc12)NC(=O)[C@H](Cc1cnc[nH]1)NC(=O)[C@@H]1CCC(=O)N1 [Deslorelin, deslorelin]
litter sizes, in words (postpartum sows [1]): normal litter sizes | time at which LH returned to base level [2]: ≤ 18 h | LH peak relative to normal value ([2]; compared to Hansel et al. (1973)): about twice normal value | difference in pregnancy rates, Control versus Treated (mature postpartum sows): no significant difference | Pregnancy Rate (postpartum sows [3]): 71%
